From ChEMBL document CHEMBL1135481, “SMall Molecule Growth 2001 (SMoG2001): an improved knowledge-based scoring function for protein-ligand interactions” (J Med Chem, 2002)
Numbered stars: 1 amine (or outer) side, 2 acyl side, 3 side chain; on linkers, the order of the positions; unused ones are H or OH. Square brackets hold non-standard residues; d marks the D form. Peptide text beside a SMILES is read from it. * marks the point of attachment. Phe(ψ(S)CH(OH)CH2N)Pro = O=C([C@@H]1CCCN1C[C@H](O)[C@H](Cc1ccccc1)N[*:1])[*:2]; X1 = CC(C)CC(C[C@H](O)[C@H](CC1CCCCC1)N[*:1])C(=O)[*:2]; Nle = CCCC[C@H](N)C(=O)O; Orn = NCCC[C@H](N)C(=O)O; Boc = CC(C)(C)OC(=O)*

Assays:
[1] = Binding affinity against Glucoamylase
[2] = biological target: Human immunodeficiency virus type 1 protease (Human immunodeficiency virus 1) (UniProt Q72874); assay: Affinity for HIV Protease
[3] = biological target: T1, Thermolysin (Bacillus thermoproteolyticus) (UniProt P00800); assay: Binding affinity against Thermolysin
T1 sequence (whole entry): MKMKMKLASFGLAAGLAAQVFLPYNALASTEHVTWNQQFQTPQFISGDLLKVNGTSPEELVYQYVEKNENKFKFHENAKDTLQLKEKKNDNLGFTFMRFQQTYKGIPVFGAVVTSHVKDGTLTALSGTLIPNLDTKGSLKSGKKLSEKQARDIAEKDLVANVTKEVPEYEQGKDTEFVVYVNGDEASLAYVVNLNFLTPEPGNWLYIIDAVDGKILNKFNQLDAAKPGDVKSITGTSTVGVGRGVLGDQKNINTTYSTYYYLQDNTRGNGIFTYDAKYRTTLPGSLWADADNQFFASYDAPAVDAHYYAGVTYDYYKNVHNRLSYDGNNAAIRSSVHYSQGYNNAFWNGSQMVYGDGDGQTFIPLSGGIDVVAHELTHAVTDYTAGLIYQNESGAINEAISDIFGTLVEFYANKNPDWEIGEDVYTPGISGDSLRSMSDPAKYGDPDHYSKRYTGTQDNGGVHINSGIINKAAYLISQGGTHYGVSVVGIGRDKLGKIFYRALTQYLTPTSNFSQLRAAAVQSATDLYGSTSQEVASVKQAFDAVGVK

[4] = Binding affinity against TP isomerase
[5] = Binding affinity against Arabinose binding protein of the compound
[6] = Binding affinity against enolase
[7] = Binding affinity against Glucose binding protein
[8] = Binding affinity against Endothiapepsin
[9] = test system: Purine nucleoside phosphorylase; assay: Binding affinity against Purine Nucleoside Phosphorylase
[10] = Binding affinity against Histidine-binding protein
[11] = biological target: Serine protease 1 (Homo sapiens) (UniProt P07477); assay: Binding affinity against trypsin
Chain of Serine protease 1 (Homo sapiens) (P07477 whole entry): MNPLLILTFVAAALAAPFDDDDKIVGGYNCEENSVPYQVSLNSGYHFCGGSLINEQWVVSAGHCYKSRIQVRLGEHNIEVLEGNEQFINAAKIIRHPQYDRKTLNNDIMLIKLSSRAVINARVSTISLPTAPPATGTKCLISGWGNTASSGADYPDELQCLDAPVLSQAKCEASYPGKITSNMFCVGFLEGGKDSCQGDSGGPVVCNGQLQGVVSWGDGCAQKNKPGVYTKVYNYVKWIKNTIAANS

Trypsin II (Bos taurus) = biological target: T2, Trypsin II (Bos taurus) (UniProt Q29463); assay: log Kd (Binding affinity against specified protein) value of the compound
T2 sequence (whole entry): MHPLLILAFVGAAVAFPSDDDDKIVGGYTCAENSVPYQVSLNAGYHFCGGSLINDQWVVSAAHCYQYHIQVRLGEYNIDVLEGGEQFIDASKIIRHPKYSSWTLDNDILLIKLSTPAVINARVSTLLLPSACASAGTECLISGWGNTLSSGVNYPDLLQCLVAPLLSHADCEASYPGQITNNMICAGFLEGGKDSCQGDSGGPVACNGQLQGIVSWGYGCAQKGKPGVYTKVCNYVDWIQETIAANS

[12] = biological target: Prothrombin (Homo sapiens) (UniProt P00734); assay: Binding affinity against thrombin
[13] = Binding affinity against Neuraminidase
[14] = Binding affinity against Penicillopepsin
[15] = Binding affinity against Retinol-binding protein
[16] = Binding affinity against FK506 binding protein
[17] = Binding affinity against Xylose isomerase
[18] = Binding affinity against immunoglobulin
[19] = biological target: T3, Mast cell carboxypeptidase A (Homo sapiens) (UniProt P15088); assay: Binding affinity against Carboxypeptidase A
T3 sequence (whole entry): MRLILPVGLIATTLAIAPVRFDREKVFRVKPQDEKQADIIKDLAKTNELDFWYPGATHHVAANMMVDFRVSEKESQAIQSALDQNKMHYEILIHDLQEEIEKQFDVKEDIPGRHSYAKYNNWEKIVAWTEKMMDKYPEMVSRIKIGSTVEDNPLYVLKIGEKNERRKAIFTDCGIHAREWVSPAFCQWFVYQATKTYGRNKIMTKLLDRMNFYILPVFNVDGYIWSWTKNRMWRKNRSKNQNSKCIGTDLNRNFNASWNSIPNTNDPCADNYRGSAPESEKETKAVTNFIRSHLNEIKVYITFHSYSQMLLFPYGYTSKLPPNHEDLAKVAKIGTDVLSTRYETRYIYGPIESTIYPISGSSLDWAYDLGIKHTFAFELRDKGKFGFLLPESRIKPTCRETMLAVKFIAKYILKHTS

[20] = biological target: T4, Fatty acid-binding protein, intestinal (Homo sapiens) (UniProt P12104); assay: Binding affinity against Fatty acid-binding protein
T4 sequence (whole entry): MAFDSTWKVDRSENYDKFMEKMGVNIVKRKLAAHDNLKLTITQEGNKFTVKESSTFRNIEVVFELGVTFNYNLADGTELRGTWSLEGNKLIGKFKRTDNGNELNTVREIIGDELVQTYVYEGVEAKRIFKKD

OC[C@H]1NC[C@H](O)[C@@H](O)[C@@H]1O
Log Kd [1]: -4.02

COC(=O)[C@@H](NC(=O)[C@@H](NC(=O)[C@H](C)N1CCC([C@H](C)NC(=O)[C@H](C)N)=C[C@@H](Cc2ccccc2)C1)C(C)C)C(C)C
Log Kd [2]: -6.37

CC(C)C[C@H](NP(=O)(O)O)C(N)=O
Log Kd [3]: -5.89

O=C(O)COP(=O)(O)O
Log Kd [4]: -4.82

OC[C@H]1O[C@@H](O)[C@H](O)[C@@H](O)[C@H]1O
Log Kd [5]: -6.65

CCCC[C@H](NC(=O)[C@H](CCCC)NC(=O)[C@@H](NC(=O)[C@@H](NC(C)=O)[C@@H](C)O)[C@@H](C)CC)C(=O)N[C@@H](CCCN)C(=O)N[C@@H](CCCN=C(N)N)C(N)=O (Ac-TI[Nle][Nle][Orn]R-NH2)
Log Kd [2]: -6.11

O=C(CP(=O)(O)O)NO
Log Kd [6]: -10.8

OC[C@H]1OC(O)[C@H](O)[C@@H](O)[C@@H]1O (stereo not given in full)
Log Kd [7]: -7.6

CC1(C)SC(C(NC(=O)Cc2ccccc2)C(=O)NCc2ccccc2)NC1C(=O)NC(Cc1ccccc1)C(O)CC(=O)NCC1=NC2C=CC=CC2=N1 (stereo not given)
Log Kd [2]: -9.69

CC[C@H](C)[C@@H](NC(=O)[C@@H](C[C@H](O)[C@H](CC(C)C)NC(=O)[C@H](Cc1c[nH]cn1)NC(=O)[C@H](Cc1ccccc1)NC(=O)[C@@H]1CCCN1C(=O)[C@@H](N)Cc1c[nH]cn1)C(C)C)C(=O)N[C@@H](Cc1c[nH]cn1)C(=O)O
Log Kd [8]: -9.02

CCC(C)CNC(=O)C(CC(C)C)CC(O)C(CC1CCCCC1)NC(=O)C(Cc1c[nH]cn1)NC(=O)C(Cc1cccc2ccccc12)Cc1cccc2ccccc12 (stereo not given)
Log Kd [8]: -6.63

O=P(O)(O)OP(=O)(O)OC[C@H]1O[C@@H](n2cnc3cncnc32)[C@H](O)[C@@H]1O
Log Kd [9]: -6.22

CC(C)[C@H](NC(=O)N(C)Cc1ccccn1)C(=O)N[C@@H](Cc1ccccc1)[C@H](O)[C@H](O)[C@H](Cc1ccccc1)NC(=O)[C@@H](NC(=O)N(C)Cc1ccccn1)C(C)C
Log Kd [2]: -10.1

N[C@@H](Cc1c[nH]cn1)C(=O)O
Log Kd [10]: -7.31

N=C(N)c1ccccc1
Log Kd [11]: -4.74
Log Kd (Trypsin II (Bos taurus)): -1.83

CC(C)C[C@H](NC(CCc1ccccc1)C(=O)O)C(=O)N[C@@H](Cc1c[nH]c2ccccc12)C(=O)O (stereo not given in full)
Log Kd [3]: -7.13

C[C@H]1OC(O)[C@H](O)[C@@H](O)[C@H]1O (stereo not given in full)
Log Kd [5]: -5.43

CC[C@H](C)[C@H](NC(=O)[C@@H](NC[C@H](CC(C)C)NC(=O)[C@H](Cc1c[nH]cn1)NC(=O)[C@H](Cc1ccccc1)NC(=O)[C@@H]1CCCN1C(=O)[C@H](Cc1c[nH]cn1)NC(=O)[C@@H]1CCCN1)C(C)C)C(=O)N[C@@H](Cc1c[nH]cn1)C(=O)N[C@@H](CCCCN)C(=O)O
Log Kd [8]: -6.8

C[C@@H](O)[C@H](NC(=O)[C@@H]1CCCN1)C(=O)N[C@@H](CCC(=O)O)C(=O)N[C@H](CN[C@@H](Cc1ccccc1)C(=O)N[C@@H](CCCN=C(N)N)C(=O)N[C@@H](CCC(=O)O)C(=O)O)Cc1ccccc1
Log Kd [8]: -7.22

NC(N)=NCCC[C@H](NC(=O)[C@@H]1CCCN1C(=O)C(N)Cc1ccccc1)C(=O)O (stereo in doubt)
Log Kd [12]: -6.24

CC(C)[C@H](N)C(=O)N[C@@H](Cc1c[nH]c2ccccc12)C(=O)O (H-Val-Trp-OH)
Log Kd [3]: -5.91

O=[N+]([O-])Nc1ccccc1
Log Kd [3]: -6.37

CC(=O)N[C@H]1[C@H]([C@H](O)[C@H](O)CO)OC(C(=O)O)=C[C@@H]1O
Log Kd [13]: -5.31

CCOC(=O)CC(O)C(CC(C)C)NC(=O)[C@@H](NC(=O)[C@@H](NC(=O)CC(C)C)C(C)C)C(C)C (stereo not given in full)
Log Kd [14]: -7.71

CC1(C)SC(C(NC(=O)Cc2ccccc2)C(=O)NCc2ccccc2)NC1C(=O)NC(CO)Cc1ccccc1 (stereo not given)
Log Kd [2]: -8.1

CC1=C(/C=C/C(C)=C/C=C/C(C)=C/CO)C(C)(C)CCC1
Log Kd [15]: -6.72

CC(C)CC(C[C@H](O)[C@H](CC1CCCCC1)NC(=O)[C@H](Cc1c[nH]cn1)NC(=O)[C@H](Cc1ccccc1)NC(=O)OC(C)(C)C)C(=O)N[C@@H](CCCCN)C(=O)N[C@@H](Cc1ccccc1)C(=O)O (stereo not given in full) (Boc-FH[X1]KF-OH)
Log Kd [8]: -7.11

NCCCCc1ccccc1
Log Kd [11]: -1.7

CC(C)N(C[C@H](O)[C@H](CC1CCCCC1)NC(=O)[C@H](Cc1c[nH]cn1)NC(=O)[C@H](Cc1ccccc1)NC(=O)OC(C)(C)C)C(=O)N[C@@H](CCCCN)C(=O)N[C@@H](Cc1ccccc1)C(=O)O
Log Kd [8]: -6.58

CC(C)C[C@H](N)C(=O)NO
Log Kd [3]: -3.72

CC(C)CN(C[C@@H](O)[C@H](Cc1ccccc1)NC(=O)O[C@H]1CCOC1)S(=O)(=O)c1ccc(N)cc1
Log Kd [2]: -9.23

C=CC[C@@H]1/C=C(\C)C[C@H](C)C[C@H](OC)[C@H]2O[C@@](O)(C(=O)C(=O)N3CCCC[C@H]3C(=O)O[C@H](/C(C)=C/[C@@H]3CC[C@@H](O)[C@H](OC)C3)[C@H](C)[C@@H](O)CC1=O)[C@H](C)C[C@@H]2OC
Log Kd [16]: -9.7

CC=O
Log Kd [2]: -8.41

OC[C@@H](O)[C@H](O)[C@@H](O)CO
Log Kd [17]: -5.83

N#Cc1ccc(NC(=N)NC(c2ccccc2)c2ccccc2)cc1
Log Kd [18]: -7.28

CC[C@H](C)[C@H](NC(=O)[C@@H]1CCCN1C[C@H](O)[C@H](Cc1ccccc1)NC(=O)[C@H](CC(N)=O)NC(=O)[C@H](CC(C)C)NC(=O)[C@H](CO)NC(C)=O)C(=O)N[C@H](C(=O)OC)C(C)C (Ac-SLN[Phe(ψ(S)CH(OH)CH2N)Pro]IV-OMe)
Log Kd [2]: -9.63

CC(C)[C@H](NC(=O)N(C)Cc1ccccn1)C(=O)N[C@@H](Cc1ccccc1)C(O)C(O)[C@H](Cc1ccccc1)NC(=O)[C@@H](NC(=O)N(C)Cc1ccccn1)C(C)C (single isomer, unassigned)
Log Kd [2]: -10.1

O=P(O)(O)OP(=O)(O)OP(=O)(O)OP(=O)(O)OP(=O)(O)OC[C@H]1O[C@@H](n2cnc3cncnc32)[C@H](O)[C@@H]1O
Log Kd [9]: -5.96

O=C(N[C@H]1c2ccccc2C[C@H]1O)[C@H](Cc1ccccc1)CC(O)C[C@@H](Cc1ccccc1)C(=O)N[C@H]1c2ccccc2C[C@H]1O
Log Kd [2]: -9.15

NCCCC[C@H](NC(=O)CN)C(=O)O (H-Gly-Lys-OH)
Log Kd [19]: -3.89

CC(C)[C@H](NC(=O)N(C)Cc1ccccn1)C(=O)N[C@@H](Cc1ccccc1)C[C@@H](O)[C@H](Cc1ccccc1)NC(=O)[C@@H](NC(=O)N(C)Cc1ccccn1)C(C)C
Log Kd [2]: -10.5

OC1OC[C@H](O)[C@H](O)[C@H]1O (stereo not given in full)
Log Kd [5]: -7.03

CC(C)[C@H](NC(=O)N(C)Cc1ccccn1)C(=O)N[C@@H](Cc1ccccc1)[C@@H](O)[C@H](O)[C@H](Cc1ccccc1)NC(=O)[C@@H](NC(=O)N(C)Cc1ccccn1)C(C)C
Log Kd [2]: -9.01

CC(C)C[C@H](NC(=O)C[C@H](O)[C@H](CC1CCCCC1)NC(=O)CC[C@H](O)[C@H](Cc1ccccc1)NC(=O)OC(C)(C)C)C(=O)NCc1cccc(CN)c1
Log Kd [8]: -4.8

O=P(O)(O)OP(=O)(O)OP(=O)(O)OP(=O)(O)OC[C@H]1O[C@@H](n2cnc3cncnc32)[C@H](O)[C@@H]1O
Log Kd [9]: -5.85

CC(C)C[C@H](NP(=O)(O)O[C@@H]1O[C@@H](C)[C@H](O)[C@@H](O)[C@H]1O)C(=O)N[C@@H](Cc1c[nH]c2ccccc12)C(=O)O
Log Kd [3]: -7.56

CCCCCCCCCCCCCCCC(=O)O
Log Kd [20]: -5.43

O=C1N(Cc2ccc3ccccc3c2)[C@H](Cc2ccccc2)[C@H](O)[C@@H](O)[C@@H](Cc2ccccc2)N1Cc1ccc2ccccc2c1
Log Kd [2]: -9.52

CCOC(=O)CC(OP(=O)(O)O)C(CC(C)C)NC(=O)[C@@H](NC(=O)[C@@H](NC(=O)CC(C)C)C(C)C)C(C)C (stereo not given in full)
Log Kd [14]: -7.66
